Active and inactive are the calls of the source. The calls are words filed in the database; no cut-off is given here.
Experiments:
[1] = target: Sigma non-opioid intracellular receptor 1 (Homo sapiens, UniProt Q99720); assay: biochemical
Description: Displacement of [3H](+)pentazocine from human sigma 1 receptor transfected in HEK293 cell membranes after 120 mins by scintillation counter

[2] = Displacement of [3H]di-o-tolylguanidine from sigma 2 receptor in guinea pig brain membranes after 120 mins by scintillation counter; format: cell membranes, Cavia porcellus, Membrane
[3] = target: Voltage-gated inwardly rectifying potassium channel KCNH2 (Homo sapiens, UniProt Q12809)
Sequence of Voltage-gated inwardly rectifying potassium channel KCNH2 (Q12809 whole entry): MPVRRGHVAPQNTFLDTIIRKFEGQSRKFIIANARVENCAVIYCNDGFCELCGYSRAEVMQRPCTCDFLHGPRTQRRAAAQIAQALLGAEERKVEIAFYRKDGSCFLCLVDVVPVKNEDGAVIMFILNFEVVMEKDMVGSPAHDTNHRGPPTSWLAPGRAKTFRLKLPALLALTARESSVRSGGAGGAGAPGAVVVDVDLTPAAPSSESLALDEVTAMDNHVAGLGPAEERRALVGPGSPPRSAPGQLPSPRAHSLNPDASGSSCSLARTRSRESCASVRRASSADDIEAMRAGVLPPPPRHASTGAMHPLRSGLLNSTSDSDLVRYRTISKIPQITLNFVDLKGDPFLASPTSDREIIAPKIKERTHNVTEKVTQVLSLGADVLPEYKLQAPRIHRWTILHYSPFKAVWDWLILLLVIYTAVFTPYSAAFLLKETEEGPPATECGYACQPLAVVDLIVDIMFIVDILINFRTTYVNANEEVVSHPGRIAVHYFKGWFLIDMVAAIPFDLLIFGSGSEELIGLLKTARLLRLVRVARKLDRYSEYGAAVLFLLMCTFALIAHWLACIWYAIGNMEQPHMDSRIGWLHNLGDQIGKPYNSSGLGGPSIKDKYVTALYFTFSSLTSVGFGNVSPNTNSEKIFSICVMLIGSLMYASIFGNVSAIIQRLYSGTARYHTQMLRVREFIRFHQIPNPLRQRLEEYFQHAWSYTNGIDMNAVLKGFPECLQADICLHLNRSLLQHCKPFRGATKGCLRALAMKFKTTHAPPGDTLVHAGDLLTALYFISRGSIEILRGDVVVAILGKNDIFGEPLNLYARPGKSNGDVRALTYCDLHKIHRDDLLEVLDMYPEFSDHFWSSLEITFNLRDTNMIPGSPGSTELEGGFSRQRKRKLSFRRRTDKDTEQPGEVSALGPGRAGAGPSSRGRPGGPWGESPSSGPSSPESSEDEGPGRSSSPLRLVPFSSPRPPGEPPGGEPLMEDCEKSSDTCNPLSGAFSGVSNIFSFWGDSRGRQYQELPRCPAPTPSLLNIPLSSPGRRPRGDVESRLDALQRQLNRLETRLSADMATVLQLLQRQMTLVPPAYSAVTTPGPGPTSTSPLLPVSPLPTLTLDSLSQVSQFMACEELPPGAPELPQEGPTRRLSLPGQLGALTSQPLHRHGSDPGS
Description: Inhibition of human ERG transfected in HEK293 cell membranes by whole cell patch clamp assay

Mus musculus [4] = assay: Analgesic activity in CD1 mouse assessed as inhibition of capsaicin-induced mechanical hypersensitivity at 16 mg/kg, ip administered 15 mins prior to capsaicin challenge measured 30 mins post capsaicin challenge; format: functional; conditions: route intraperitoneal
[5] = Intrinsic clearance in human liver microsomes assessed as per mg of protein at 10 uM; format: ADME, Microsome; conditions: read-out: CLH
Mus musculus [6] = assay: Inhibition of capsaicin-induced mechanical hypersensitivity in CD1 mouse assessed as paw withdrawal latency at 32 mg/kg, ip administered 15 mins prior to capsaicin challenge measured 30 mins post capsaicin challenge; format: functional; conditions: route intraperitoneal
Mus musculus [7] = assay: Antiallodynic activity in CD1 mouse partial sciatic nerve ligation model assessed as inhibition of mechanical allodynia at 16 to 64 mg/kg, ip administered 30 mins by von Frey test; format: functional, organism-based
Mus musculus [8] = assay: Antihyperalgesic activity in CD1 mouse partial sciatic nerve ligation model assessed as inhibition of thermal hyperalgesia at 16 to 64 mg/kg, ip administered 45 mins by plantar test; format: functional, organism-based
Mus musculus [9] = assay: Neurotoxicity in CD1 mouse assessed as motor impairment at 32 to 64 mg/kg, ip measured after 30 to 180 mins by rotarod test; format: toxicity, organism-based; set-up: route intraperitoneal; conditions: in vivo

Sequence of Sigma non-opioid intracellular receptor 1 (Q99720 whole entry): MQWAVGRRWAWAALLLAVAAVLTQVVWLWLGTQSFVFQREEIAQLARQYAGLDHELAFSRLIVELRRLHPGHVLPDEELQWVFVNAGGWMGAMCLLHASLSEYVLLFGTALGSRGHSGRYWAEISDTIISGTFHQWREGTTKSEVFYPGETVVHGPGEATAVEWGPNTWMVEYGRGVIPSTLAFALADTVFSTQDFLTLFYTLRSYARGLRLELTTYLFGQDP

Row | SMILES | Ki [1] [nM] | Ki [2] [nM] | further results
1 | Cc1cc(OCCCCn2ccc3c2CCCC3=O)nn1-c1ccc(Cl)c(Cl)c1 | > 1000 | > 1000 | –
2 | Cc1cc(OCCn2ccnc2)nn1-c1ccc(Cl)c(Cl)c1 | 294 | > 1000 | –
3 | CCN(CC)CCCCOc1cc(C)n(-c2ccc(Cl)c(Cl)c2)n1 | 11.7 | 45.5 | –
4 | c1cn(C2CCCCC2)nc1OCCN1CCOCC1 | 23.1 | > 1000 | IC50 [3]: > 10000 nM; inhibition in vivo at 16 mg/kg (Mus musculus [4]): 20%
5 | O=C(CN1CCCCC1)Nc1ccn(-c2ccc(Cl)c(Cl)c2)n1 | 80.8 | > 1000 | –
6 | Clc1ccc(-n2nc(OCCN3CCOCC3)cc2-c2ccccc2)cc1Cl | 224 | > 1000 | –
7 | Clc1ccc(-n2ccc(OCCN3CCCCC3)n2)cc1Cl | 16.7 | 64.7 | –
8 | Clc1ccc(-n2ccc(OCCCN3CCOCC3)n2)cc1Cl | 16.1 | 394 | –
9 | CC(C)(C)n1ccc(OCCN2CCOCC2)n1 | > 1000 | > 1000 | –
10 | CCN(CC)CCCCOc1ccn(-c2ccc(Cl)c(Cl)c2)n1 | 17.2 | 104 | –
11 | OC(COc1ccn(-c2ccc(Cl)c(Cl)c2)n1)CN1CCOCC1 (stereo unspecified) | 128 | > 1000 | –
12 | Cc1cc(OCCCN2CCN(C)CC2)nn1-c1ccc(Cl)c(Cl)c1 | 13.3 | 170 | –
13 | CC(=O)N1CCN(CCOc2cc(C)n(-c3ccc4ccccc4c3)n2)CC1 | 83.4 | > 1000 | –
14 | Cc1cc(OCCN2CCOCC2=O)nn1-c1ccc2ccccc2c1 | > 1000 | > 1000 | –
15 | Cc1cc(OCCN2CCOCC2)nn1-c1ccccc1 | > 1000 | > 1000 | –
16 | Clc1ccc(-n2ccc(OCCN3CCCCCC3)n2)cc1Cl | 8.9 | – | –
17 | Cc1cc(OCCN2CCCC2)nn1-c1ccc(Cl)c(Cl)c1 | 5.2 | 483 | –
18 | Cc1cc(OCCN2CCN(C)CC2)nn1-c1ccc(Cl)c(Cl)c1 | 11.1 | > 1000 | IC50 [3]: 7400 nM; inhibition in vivo at 16 mg/kg (Mus musculus [4]): 27%; microsomal CLint at 10 µM [5]: 3 µL/min/mg
19 | Cc1cc(OCCCCN2CCN(C)CC2)nn1-c1ccc(Cl)c(Cl)c1 | 9.9 | 102 | –
20 | Cc1cc(OCCNC2CCCCC2)nn1-c1ccc(Cl)c(Cl)c1 | 8.5 | 8.8 | –
21 | CN1CCN(CC(O)COc2ccn(-c3ccc(Cl)c(Cl)c3)n2)CC1 (stereo unspecified) | 233 | > 1000 | –
22 | Cc1cc(OCCN2CCOCC2)nn1-c1cccc(Cl)c1 | 180 | > 1000 | –
23 | CC(=O)c1c(OCCN2CCOCC2)nn(-c2ccc(Cl)c(Cl)c2)c1C | 741 | > 1000 | –
24 | Cc1cc(OCCN2CCOCC2)n(-c2ccc3ccccc3c2)n1 | > 1000 | > 1000 | –

Row | SMILES | Ki [1] [nM] | Ki [2] [nM] | further results
25 | Clc1ccc(-n2ccc(OCCCCN3CCSCC3)n2)cc1Cl | 10.2 | 344 | –
26 | CCOC(=O)N1CCN(CCOc2cc(C)n(-c3ccc(Cl)c(Cl)c3)n2)CC1 | 44 | > 1000 | microsomal CLint at 10 µM [5]: 26 µL/min/mg
27 | Cc1cc(OCCN2CCC(n3cnc4cccnc43)CC2)nn1-c1ccc(Cl)c(Cl)c1 | 16 | 435 | –
28 | CCN(CC)CCOc1cc(C)n(-c2ccc(Cl)c(Cl)c2)n1 | 9.9 | 250 | –
29 | Cc1cc(OCCCCN2CCOCC2)nn1-c1ccc2ccccc2c1 | 99.1 | 428 | –
30 | CC(=O)N1CCN(CCCCOc2cc(C)n(-c3ccc4ccccc4c3)n2)CC1 | 296 | 324 | –
31 | Clc1ccc(-n2ccc(OCCN3CCOCC3)n2)cc1 | 17.8 | 357 | –
32 | Cc1cc(OCCN2CCCCCC2)nn1-c1ccc(Cl)c(Cl)c1 | 9.4 | 63.5 | –
33 | CC(=O)C1CCN(CCOc2ccn(-c3ccc(Cl)c(Cl)c3)n2)CC1 | 7.2 | > 1000 | IC50 [3]: 4500 nM; inhibition in vivo at 16 mg/kg (Mus musculus [4]): 73%; microsomal CLint at 10 µM [5]: 7 µL/min/mg
34 | Clc1ccc(-n2ccc(OCCN3CCOCC3)n2)cc1Cl | 8.2 | 280 | –
35 | Cc1c(OCCN2CCOCC2)nn(-c2ccc3ccccc3c2)c1C | 139 | > 1000 | –
36 | Cc1cc(OCCCCN2CCC(c3ccccc3)CC2)nn1-c1ccc(Cl)c(Cl)c1 | 26 | 26.7 | –
37 | Clc1ccc(-n2ccc(OCCN3CCCC3)n2)cc1Cl | 15.7 | 23.7 | –
38 | Clc1ccc(-n2ccc(NCCN3CCCCC3)n2)cc1Cl | 9.5 | 90.5 | –
39 | Cc1cc(OCCCN2CCOCC2)nn1-c1ccc(Cl)c(Cl)c1 | 18.9 | 638 | –
40 | O=S(=O)(CCN1CCOCC1)OCCOc1ccn(-c2ccc(Cl)c(Cl)c2)n1 | 879 | > 1000 | –
41 | Cc1cc(OCCCCN2C[C@@H](C)O[C@@H](C)C2)nn1-c1ccc2ccccc2c1 | 65 | 226 | –
42 | COc1ccc(-n2nc(OCCN3CCOCC3)cc2C)cc1 | > 1000 | > 1000 | –
43 | Cc1cc(OCCN2CCCCC2)nn1-c1ccc(Cl)c(Cl)c1 | 5.5 | 209 | –
44 | Cc1cc(OCCCCN2CCOCC2)nn1-c1ccc(Cl)c(Cl)c1 | 13.3 | 245 | –
45 | Clc1ccc(-n2ccc(OCCOCCN3CCCCC3)n2)cc1Cl | 36.8 | 14.2 | –
46 | Cc1cc(OCCCCN2CCCC2)nn1-c1ccc(Cl)c(Cl)c1 | 6.9 | 12.6 | –
47 | CC1CCN(CCOc2ccn(-c3ccc(Cl)c(Cl)c3)n2)CC1 | 8.6 | 32.8 | –
48 | Cc1cc(OCCN2CCCC2)nn1-c1ccc2ccccc2c1 | 9.9 | 395 | –

Row | SMILES | Ki [1] [nM] | Ki [2] [nM] | further results
49 | Cc1cc(OCCN2CCOCC2)nn1-c1ccc(Cl)cc1Cl | 44 | > 1000 | microsomal CLint at 10 µM [5]: 25 µL/min/mg
50 | c1ccc2cc(-n3ccc(OCCN4CCOCC4)n3)ccc2c1 | 33.3 | > 1000 | IC50 [3]: > 10000 nM; inhibition in vivo at 32 mg/kg (Mus musculus [6]): 55%; microsomal CLint at 10 µM [5]: 6 µL/min/mg
51 | Cc1cc(OCCN2CCN(c3ccccc3)CC2)nn1-c1ccc(Cl)c(Cl)c1 | 14.8 | 563 | –
52 | Cc1cc(OCCCN2CCCC2)nn1-c1ccc(Cl)c(Cl)c1 | 10.4 | 62 | –
53 | CN1CCN(CCCOc2ccn(-c3ccc(Cl)c(Cl)c3)n2)CC1 | 16.5 | 307 | –
54 | CN1CCN(CCc2ccc(Cl)c(Cl)c2)CC1 | 6.3 | 318 | –
55 | Cc1cc(OCCN2C[C@@H](C)O[C@@H](C)C2)nn1-c1ccc2ccccc2c1 | 33.8 | > 1000 | IC50 [3]: 7400 nM; microsomal CLint at 10 µM [5]: 25 µL/min/mg
56 | CC(C)c1cc(OCCN2CCOCC2)nn1-c1ccc(Cl)c(Cl)c1 | 172 | > 1000 | –
57 | Cc1cc(OCCN2CCCCC2)nn1-c1ccc2ccccc2c1 | 10 | 84.7 | –
58 | Cc1cc(SCCN2CCOCC2)nn1-c1ccc(Cl)c(Cl)c1 | 14.2 | > 1000 | IC50 [3]: > 10000 nM; microsomal CLint at 10 µM [5]: 37 µL/min/mg
59 | CC(C)C[C@H](CN)CC(=O)O [PREGABALIN] | – | – | inhibition (Mus musculus [7]): Active; inhibition (Mus musculus [8]): Active; Activity (Mus musculus [9]): Toxic
60 | Clc1ccc(-n2ccc(OCCCCN3CCOCC3)n2)cc1Cl | 17.6 | 829 | –
61 | COCCN(C)CCCCOc1ccn(-c2ccc(Cl)c(Cl)c2)n1 | 8.2 | 66.3 | –
62 | Clc1ccc(-n2ccc(NCCN3CCOCC3)n2)cc1Cl | 39.4 | 562 | –
63 | Cc1c(OCCN2CCOCC2)nn(-c2ccc(Cl)c(Cl)c2)c1C | 9.4 | 351 | –
64 | O=C(CCCN1CCC(O)(c2ccc(Cl)cc2)CC1)c1ccc(F)cc1 [HALOPERIDOL] | – | 22 | –
65 | CN(CCCCOc1ccn(-c2ccc(Cl)c(Cl)c2)n1)Cc1ccccc1 | 24 | 46.3 | –
66 | Clc1ccc(-n2ccc(OCCCN3CCCCC3)n2)cc1Cl | 9.6 | 37.2 | –
67 | CCN(CC)CCOc1cc(C)n(-c2ccc3ccccc3c2)n1 | 47 | 589 | –
68 | Cc1cc(OCCCCn2ccnc2)nn1-c1ccc(Cl)c(Cl)c1 | 854 | > 1000 | –
69 | Cc1cc(OCCN2CCOCC2)nn1-c1ccc(Cl)c(Cl)c1 | – | > 1000 | inhibition in vivo at 16 mg/kg (Mus musculus [4]): 25%; microsomal CLint at 10 µM [5]: 12 µL/min/mg
70 | C[C@@H]1CN(CCCCOc2ccn(-c3ccc(Cl)c(Cl)c3)n2)C[C@H](C)O1 | 14.8 | 153 | –
71 | Cc1cc(OCCCCN2CCCCC2)nn1-c1ccc(Cl)c(Cl)c1 | 7.1 | 47.5 | –
72 | Cc1cc(OCCN2CCC(C)CC2)nn1-c1ccc(Cl)c(Cl)c1 | 8.4 | 161 | –

From ChEMBL document CHEMBL2169838, “Synthesis and biological evaluation of the 1-arylpyrazole class of σ(1) receptor antagonists: identification of 4-{2-[5-methyl-1-(naphthalen-2-yl)-1H-pyrazol-3-yloxy]ethyl}morpholine (S1RA, E-52862)” (J Med Chem, 2012)
